In patent publication US6156700A, “3-(1,2-Benzisothiazol- and isoxazol-5-yl)-2,4(1H,3H)-pyrimidinedione or thione and 3-(1,2-benzisothiazol- and isoxazol-5-yl)-4(3H)-pyrimidinone or thione herbicidal agents” (American Cyanmid Company, priority 1998, dated 2000):

How the values were obtained:
ABUTH [1] = test: Postemergence herbicidal evaluation; type: in vivo
GLXMAW [2] = test: Postemergence herbicidal evaluation; type: in vivo
ORYSAT [3] = test: Preemergence herbicidal evaluation; type: in vivo, Oryza sativa; set-up: scale not given here
Description: (§1) The preemergence and postemergence herbicidal properties of certain compounds of the present invention are compared with certain compounds disclosed in U.S. Pat. Nos. 5,484,763 and 5,523,278. The evaluations are performed as described in Examples 185 and 186. Data in Tables V and VI are reported by the compound number given in Example 185 for the compounds of this invention or by comparative compound letter for the compounds disclosed in U.S. Pat. Nos. 5,484,763 and 5,523,278.

ABUTH [4] = test: Preemergence herbicidal evaluation; type: in vivo; set-up: scale not given here
Description: as §1

AMBEL [5] = test: Preemergence herbicidal evaluation; type: in vivo; set-up: scale not given here
Description: as §1

ECHCG [6] = test: Preemergence herbicidal evaluation; type: in vivo; set-up: scale not given here
Description: as §1

GLXMAW [7] = test: Preemergence herbicidal evaluation; type: in vivo; set-up: scale not given here
Description: as §1

GALAP [8] = test: Preemergence herbicidal evaluation; type: in vivo; set-up: scale not given here
Description: as §1

CASOB [9] = test: Preemergence herbicidal evaluation; type: in vivo; set-up: scale not given here
Description: as §1

IPOSS [10] = test: Preemergence herbicidal evaluation; type: in vivo; set-up: scale not given here
Description: as §1

CHEAL [11] = test: Preemergence herbicidal evaluation; type: in vivo; set-up: scale not given here
Description: as §1

SETVI [12] = test: Preemergence herbicidal evaluation; type: in vivo; set-up: scale not given here
Description: as §1

ZEAMX [13] = test: Preemergence herbicidal evaluation; type: in vivo; set-up: scale not given here
Description: as §1

ZEAMX [14] = test: Postemergence herbicidal evaluation; type: in vivo
IPOSS [15] = test: Postemergence herbicidal evaluation; type: in vivo
SETVI [16] = test: Postemergence herbicidal evaluation; type: in vivo
CASOB [17] = test: Postemergence herbicidal evaluation; type: in vivo
CHEAL [18] = test: Postemergence herbicidal evaluation; type: in vivo
ECHCG [19] = test: Postemergence herbicidal evaluation; type: in vivo
AMBEL [20] = test: Postemergence herbicidal evaluation; type: in vivo
ORYSAT [21] = test: Postemergence herbicidal evaluation; type: in vivo, Oryza sativa
GALAP [22] = test: Postemergence herbicidal evaluation; type: in vivo

With `Cc1nsc2ccc(N3C(=O)C4=C(CCCC4)C3=O)cc12` [B] the herbicidal effect rating (ABUTH [1]; 0.0157-0.0160 kg/ha) was 8.0, the herbicidal effect rating (ABUTH [1]; 0.0313-0.0320 kg/ha) was 8.0 and the herbicidal effect rating (ABUTH [1]; 0.0625-0.0640 kg/ha) was 9.0. For the same compound, the herbicidal effect rating (ABUTH [1]; 0.1250 kg/ha) was 9.0, the herbicidal effect rating (ABUTH [1]; 0.2500 kg/ha) was 9.0 and the herbicidal effect rating (ABUTH [1]; 0.5000 kg/ha) was 9.0. For the same compound, the herbicidal effect rating (GLXMAW [2]; 0.0157-0.0160 kg/ha) was 5.5, the herbicidal effect rating (GLXMAW [2]; 0.0313-0.0320 kg/ha) was 5.5 and the herbicidal effect rating (GLXMAW [2]; 0.0625-0.0640 kg/ha) was 5.5. The herbicidal effect rating (GLXMAW [2]; 0.1250 kg/ha) was 6.0, the herbicidal effect rating (GLXMAW [2]; 0.2500 kg/ha) was 7.0 and the herbicidal effect rating (GLXMAW [2]; 0.5000 kg/ha) was 7.5. It also gave a herbicidal effect rating (ORYSAT [3]; 0.0313-0.0320 kg/ha) of 0.0, a herbicidal effect rating (ORYSAT [3]; 0.0620-0.0630 kg/ha) of 0.0 and a herbicidal effect rating (ORYSAT [3]; 0.1250 kg/ha) of 2.0. For the same compound, the herbicidal effect rating (ORYSAT [3]; 0.2500 kg/ha) was 2.0, the herbicidal effect rating (ORYSAT [3]; 0.5000 kg/ha) was 4.0 and the herbicidal effect rating (ABUTH [4]; 0.0313-0.0320 kg/ha) was 0.0. The herbicidal effect rating (ABUTH [4]; 0.0620-0.0630 kg/ha) was 3.0, the herbicidal effect rating (ABUTH [4]; 0.2500 kg/ha) was 2.0 and the herbicidal effect rating (ABUTH [4]; 0.5000 kg/ha) was 5.0. For the same compound, the herbicidal effect rating (AMBEL [5]; 0.0313-0.0320 kg/ha) was 0.0, the herbicidal effect rating (AMBEL [5]; 0.0620-0.0630 kg/ha) was 0.0 and the herbicidal effect rating (AMBEL [5]; 0.1250 kg/ha) was 2.0. The herbicidal effect rating (AMBEL [5]; 0.2500 kg/ha) was 3.0, the herbicidal effect rating (AMBEL [5]; 0.5000 kg/ha) was 8.0 and the herbicidal effect rating (ECHCG [6]; 0.0313-0.0320 kg/ha) was 0.0. For the same compound, the herbicidal effect rating (ECHCG [6]; 0.0620-0.0630 kg/ha) was 0.0, the herbicidal effect rating (ECHCG [6]; 0.1250 kg/ha) was 3.0 and the herbicidal effect rating (ECHCG [6]; 0.2500 kg/ha) was 5.0. The herbicidal effect rating (ECHCG [6]; 0.5000 kg/ha) was 5.0, the herbicidal effect rating (GLXMAW [7]; 0.0313-0.0320 kg/ha) was 0.0 and the herbicidal effect rating (GLXMAW [7]; 0.0620-0.0630 kg/ha) was 0.0. It also gave a herbicidal effect rating (GLXMAW [7]; 0.1250 kg/ha) of 0.0, a herbicidal effect rating (GLXMAW [7]; 0.2500 kg/ha) of 1.0 and a herbicidal effect rating (GLXMAW [7]; 0.5000 kg/ha) of 1.0. For the same compound, the herbicidal effect rating (GALAP [8]; 0.0313-0.0320 kg/ha) was 0.0, the herbicidal effect rating (GALAP [8]; 0.0620-0.0630 kg/ha) was 0.0 and the herbicidal effect rating (GALAP [8]; 0.1250 kg/ha) was 5.0. It also gave a herbicidal effect rating (GALAP [8]; 0.2500 kg/ha) of 9.0, a herbicidal effect rating (GALAP [8]; 0.5000 kg/ha) of 7.0 and a herbicidal effect rating (CASOB [9]; 0.0313-0.0320 kg/ha) of 0.0. For the same compound, the herbicidal effect rating (CASOB [9]; 0.0620-0.0630 kg/ha) was 0.0, the herbicidal effect rating (CASOB [9]; 0.1250 kg/ha) was 0.0 and the herbicidal effect rating (CASOB [9]; 0.2500 kg/ha) was 0.0. For the same compound, the herbicidal effect rating (CASOB [9]; 0.5000 kg/ha) was 0.0, the herbicidal effect rating (IPOSS [10]; 0.0313-0.0320 kg/ha) was 0.0 and the herbicidal effect rating (IPOSS [10]; 0.0620-0.0630 kg/ha) was 0.0. For the same compound, the herbicidal effect rating (IPOSS [10]; 0.1250 kg/ha) was 0.0, the herbicidal effect rating (IPOSS [10]; 0.2500 kg/ha) was 2.0 and the herbicidal effect rating (IPOSS [10]; 0.5000 kg/ha) was 5.0. The herbicidal effect rating (CHEAL [11]; 0.0313-0.0320 kg/ha) was 9.0, the herbicidal effect rating (CHEAL [11]; 0.0620-0.0630 kg/ha) was 6.0 and the herbicidal effect rating (CHEAL [11]; 0.1250 kg/ha) was 9.0. For the same compound, the herbicidal effect rating (CHEAL [11]; 0.2500 kg/ha) was 9.0, the herbicidal effect rating (CHEAL [11]; 0.5000 kg/ha) was 9.0 and the herbicidal effect rating (SETVI [12]; 0.0313-0.0320 kg/ha) was 0.0. For the same compound, the herbicidal effect rating (SETVI [12]; 0.0620-0.0630 kg/ha) was 0.0, the herbicidal effect rating (SETVI [12]; 0.1250 kg/ha) was 2.0 and the herbicidal effect rating (SETVI [12]; 0.2500 kg/ha) was 6.0. For the same compound, the herbicidal effect rating (SETVI [12]; 0.5000 kg/ha) was 4.0, the herbicidal effect rating (ZEAMX [13]; 0.0313-0.0320 kg/ha) was 0.0 and the herbicidal effect rating (ZEAMX [13]; 0.0620-0.0630 kg/ha) was 0.0. It also gave a herbicidal effect rating (ZEAMX [13]; 0.1250 kg/ha) of 0.0, a herbicidal effect rating (ZEAMX [13]; 0.2500 kg/ha) of 0.0 and a herbicidal effect rating (ZEAMX [13]; 0.5000 kg/ha) of 1.0. It also gave a herbicidal effect rating (ZEAMX [14]; 0.0157-0.0160 kg/ha) of 5.0, a herbicidal effect rating (ZEAMX [14]; 0.0313-0.0320 kg/ha) of 5.5 and a herbicidal effect rating (ZEAMX [14]; 0.0625-0.0640 kg/ha) of 5.0. It also gave a herbicidal effect rating (ZEAMX [14]; 0.1250 kg/ha) of 5.5, a herbicidal effect rating (ZEAMX [14]; 0.2500 kg/ha) of 6.0 and a herbicidal effect rating (ZEAMX [14]; 0.5000 kg/ha) of 5.5. For the same compound, the herbicidal effect rating (IPOSS [15]; 0.0157-0.0160 kg/ha) was 6.0, the herbicidal effect rating (IPOSS [15]; 0.0313-0.0320 kg/ha) was 7.0 and the herbicidal effect rating (IPOSS [15]; 0.0625-0.0640 kg/ha) was 8.0. The herbicidal effect rating (IPOSS [15]; 0.1250 kg/ha) was 8.0, the herbicidal effect rating (IPOSS [15]; 0.2500 kg/ha) was 8.0 and the herbicidal effect rating (IPOSS [15]; 0.5000 kg/ha) was 9.0. For the same compound, the herbicidal effect rating (SETVI [16]; 0.0157-0.0160 kg/ha) was 0.0, the herbicidal effect rating (SETVI [16]; 0.0313-0.0320 kg/ha) was 0.0 and the herbicidal effect rating (SETVI [16]; 0.0625-0.0640 kg/ha) was 2.0. For the same compound, the herbicidal effect rating (SETVI [16]; 0.1250 kg/ha) was 4.0, the herbicidal effect rating (SETVI [16]; 0.2500 kg/ha) was 5.0 and the herbicidal effect rating (SETVI [16]; 0.5000 kg/ha) was 5.0. It also gave a herbicidal effect rating (CASOB [17]; 0.0157-0.0160 kg/ha) of 6.0, a herbicidal effect rating (CASOB [17]; 0.0313-0.0320 kg/ha) of 7.0 and a herbicidal effect rating (CASOB [17]; 0.0625-0.0640 kg/ha) of 8.0. The herbicidal effect rating (CASOB [17]; 0.1250 kg/ha) was 8.0, the herbicidal effect rating (CASOB [17]; 0.2500 kg/ha) was 9.0 and the herbicidal effect rating (CASOB [17]; 0.5000 kg/ha) was 9.0. The herbicidal effect rating (CHEAL [18]; 0.0157-0.0160 kg/ha) was 3.0, the herbicidal effect rating (CHEAL [18]; 0.0313-0.0320 kg/ha) was 7.0 and the herbicidal effect rating (CHEAL [18]; 0.0625-0.0640 kg/ha) was 7.0. It also gave a herbicidal effect rating (CHEAL [18]; 0.1250 kg/ha) of 9.0, a herbicidal effect rating (CHEAL [18]; 0.2500 kg/ha) of 8.0 and a herbicidal effect rating (CHEAL [18]; 0.5000 kg/ha) of 9.0. For the same compound, the herbicidal effect rating (ECHCG [19]; 0.0157-0.0160 kg/ha) was 0.0, the herbicidal effect rating (ECHCG [19]; 0.0313-0.0320 kg/ha) was 2.0 and the herbicidal effect rating (ECHCG [19]; 0.0625-0.0640 kg/ha) was 2.0. It also gave a herbicidal effect rating (ECHCG [19]; 0.1250 kg/ha) of 4.0, a herbicidal effect rating (ECHCG [19]; 0.2500 kg/ha) of 5.0 and a herbicidal effect rating (ECHCG [19]; 0.5000 kg/ha) of 6.0. The herbicidal effect rating (AMBEL [20]; 0.0157-0.0160 kg/ha) was 2.0, the herbicidal effect rating (AMBEL [20]; 0.0313-0.0320 kg/ha) was 6.0 and the herbicidal effect rating (AMBEL [20]; 0.0625-0.0640 kg/ha) was 8.0. The herbicidal effect rating (AMBEL [20]; 0.1250 kg/ha) was 8.0, the herbicidal effect rating (AMBEL [20]; 0.2500 kg/ha) was 9.0 and the herbicidal effect rating (AMBEL [20]; 0.5000 kg/ha) was 9.0. For the same compound, the herbicidal effect rating (ORYSAT [21]; 0.0157-0.0160 kg/ha) was 3.5, the herbicidal effect rating (ORYSAT [21]; 0.0313-0.0320 kg/ha) was 4.0 and the herbicidal effect rating (ORYSAT [21]; 0.0625-0.0640 kg/ha) was 4.5. It also gave a herbicidal effect rating (ORYSAT [21]; 0.1250 kg/ha) of 4.5, a herbicidal effect rating (ORYSAT [21]; 0.2500 kg/ha) of 5.5 and a herbicidal effect rating (ORYSAT [21]; 0.5000 kg/ha) of 6.0. It also gave a herbicidal effect rating (GALAP [22]; 0.0157-0.0160 kg/ha) of 5.0, a herbicidal effect rating (GALAP [22]; 0.0313-0.0320 kg/ha) of 7.0 and a herbicidal effect rating (GALAP [22]; 0.0625-0.0640 kg/ha) of 7.0. The herbicidal effect rating (GALAP [22]; 0.1250 kg/ha) was 7.0, the herbicidal effect rating (GALAP [22]; 0.2500 kg/ha) was 8.0 and the herbicidal effect rating (GALAP [22]; 0.5000 kg/ha) was 8.0.
